Assay results reported in US20250270172A1, “Pyrimidine Derivatives As Modulators of the 5-HT2A Serotonin Receptor Useful For The Treatment of Disorders Related Thereto” (Arena Pharmaceuticals, Inc., priority 2020, published 2025).
Several values for one entry are separate records, joined by “and”; a condition that tells them apart may be missing. Equal entries are not always repeated.

Columns and labels:
5-HT2B = 5-HT2B (Homo sapiens (Human), UniProt P41595); assay: HTRF IP-One antagonist assay, 5-HT2B; type: cell-based; conditions: HEK293 cells stably expressing receptor, inositol phosphate accumulation, 80 nM 5-HT in Assay Buffer;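 note: clonal HEK293 line with low 5-HT2B expression (estimated 150-200 fmol/mg by radioligand binding), IP-One HTRF readout, 10-point curves from 10 µM in 5-fold steps, triplicate points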
5-HT2B, sequence (P41595 whole entry): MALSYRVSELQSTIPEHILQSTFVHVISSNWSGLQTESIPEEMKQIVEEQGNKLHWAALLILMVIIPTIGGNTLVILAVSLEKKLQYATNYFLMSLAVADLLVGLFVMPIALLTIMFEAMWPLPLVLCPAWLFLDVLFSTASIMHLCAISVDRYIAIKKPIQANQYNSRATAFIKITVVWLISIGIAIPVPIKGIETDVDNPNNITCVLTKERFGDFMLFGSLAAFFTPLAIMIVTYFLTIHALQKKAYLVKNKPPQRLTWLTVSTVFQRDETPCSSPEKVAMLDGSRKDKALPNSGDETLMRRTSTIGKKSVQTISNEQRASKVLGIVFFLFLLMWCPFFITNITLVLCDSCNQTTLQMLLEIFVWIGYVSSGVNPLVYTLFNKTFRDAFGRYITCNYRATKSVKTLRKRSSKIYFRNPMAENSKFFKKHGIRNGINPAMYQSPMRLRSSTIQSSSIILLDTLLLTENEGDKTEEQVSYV

5-HT2A [1] = molecular target: T1, 5-HT2A (Homo sapiens (Human), UniProt P28223); assay: HTRF IP-One antagonist assay, 5-HT2A; type: cell-based; conditions: HEK293 cells stably expressing receptor, inositol phosphate accumulation, 80 nM 5-HT in Assay Buffer;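 note: clonal line with low receptor density (about 50–70 fmol/mg), 10-point dose-response from 10 µM in 5-fold steps, HTRF detection after 1 hr, triplicate points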
T1 sequence (P28223 whole entry): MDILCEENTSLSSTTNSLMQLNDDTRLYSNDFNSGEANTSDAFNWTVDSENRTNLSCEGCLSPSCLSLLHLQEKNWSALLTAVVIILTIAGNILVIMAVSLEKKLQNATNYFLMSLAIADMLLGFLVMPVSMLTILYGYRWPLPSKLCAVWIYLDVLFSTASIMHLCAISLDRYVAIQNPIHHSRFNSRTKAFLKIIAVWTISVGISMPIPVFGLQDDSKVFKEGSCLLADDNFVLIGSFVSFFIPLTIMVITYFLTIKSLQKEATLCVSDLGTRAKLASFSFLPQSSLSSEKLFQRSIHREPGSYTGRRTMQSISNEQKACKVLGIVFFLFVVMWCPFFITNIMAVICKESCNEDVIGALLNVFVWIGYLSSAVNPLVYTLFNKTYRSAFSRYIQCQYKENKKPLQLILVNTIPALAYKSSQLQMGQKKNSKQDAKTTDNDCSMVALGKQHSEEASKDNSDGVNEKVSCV

5-HT2C = 5-HT2C (Homo sapiens (Human), UniProt P28335); assay: HTRF IP-One antagonist assay, 5-HT2C; type: cell-based; conditions: HEK293 cells stably expressing receptor, inositol phosphate accumulation, 80 nM 5-HT in Assay Buffer;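 note: clonal HEK293 line with low 5-HT2C density (10–20 fmol/mg), HTRF detection of IP-One, 10-point dose curves from 10 µM in 5-fold steps, triplicate points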
5-HT2C, sequence (P28335 33-458): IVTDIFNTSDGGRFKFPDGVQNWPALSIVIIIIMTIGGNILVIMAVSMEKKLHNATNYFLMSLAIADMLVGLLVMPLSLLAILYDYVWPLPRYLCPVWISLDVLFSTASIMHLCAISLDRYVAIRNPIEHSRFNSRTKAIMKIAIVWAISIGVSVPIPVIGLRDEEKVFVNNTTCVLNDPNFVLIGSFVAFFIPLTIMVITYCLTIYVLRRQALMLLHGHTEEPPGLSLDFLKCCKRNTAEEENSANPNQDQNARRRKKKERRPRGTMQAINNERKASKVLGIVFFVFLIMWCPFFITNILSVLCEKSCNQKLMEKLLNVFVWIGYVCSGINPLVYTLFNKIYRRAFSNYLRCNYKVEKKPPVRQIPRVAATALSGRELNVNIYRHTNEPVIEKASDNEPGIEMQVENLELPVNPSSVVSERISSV

5-HT2A [2] = molecular target: T1, 5-HT2A; assay: Radioligand binding assay, [^3H]5-HT competition, 5-HT2A; conditions: [^3H]5-HT radioligand, membranes of HEK293 cells expressing recombinant 5-HT2A; Ki from IC50 by Cheng-Prusoff; read-out: 5-HT2A serotonin binding Ki value

Structure (SMILES)	IC50 (5-HT2B) [nM]	IC50 (5-HT2A [1]) [nM]	IC50 (5-HT2C) [nM]	Ki (5-HT2A [2])
Cc1ncnc(C)c1-c1cc(NC(=O)c2cccn2C)ccc1OCCN1CCCC1 [Compound 200, N-(3-(4,6-dimethylpyrimidin-5-yl)-4-(2-(pyrrolidin-1-yl)ethoxy)phenyl)-1-methyl-1H-pyrrole-2-carboxamide]	100000	11.7	100000	3.72 nM
Cc1ncnc(C)c1-c1cc(NC(=O)c2ccnn2C)ccc1OCCN1CCCC1 [Compound 202, N-(3-(4,6-dimethylpyrimidin-5-yl)-4-(2-(pyrrolidin-1-yl)ethoxy)phenyl)-1-methyl-1H-pyrazole-5-carboxamide]	100000	6.35	100000	5.25 nM
Cc1ncnc(C)c1-c1cc(NC(=O)c2cc(F)ccn2)ccc1OCCN1CCCC1 [Compound 209, N-(3-(4,6-dimethylpyrimidin-5-yl)-4-(2-(pyrrolidin-1-yl)ethoxy)phenyl)-4-fluoropicolinamide]	100000	26.2	100000	4.8 nM
Cc1ncsc1C(=O)Nc1ccc(OCCN2CCCC2)c(-c2c(C)ncnc2C)c1 [Compound 214, N-(3-(4,6-dimethylpyrimidin-5-yl)-4-(2-(pyrrolidin-1-yl)ethoxy)phenyl)-4-methylthiazole-5-carboxamide]	100000	5.16	100000	3.25 nM
Cc1ncoc1C(=O)Nc1ccc(OCCN2CCCC2)c(-c2c(C)ncnc2C)c1 [Compound 217, N-(3-(4,6-dimethylpyrimidin-5-yl)-4-(2-(pyrrolidin-1-yl)ethoxy)phenyl)-4-methyloxazole-5-carboxamide]	100000	18.5	100000	7.23 nM
Cc1ncnc(C)c1-c1cc(NC(=O)C2C3COCC32)ccc1OCCN1CCCC1 (centres unmarked) [Compound 232, N-(3-(4,6-dimethylpyrimidin-5-yl)-4-(2-(pyrrolidin-1-yl)ethoxy)phenyl)-3-oxabicyclo[3.1.0]hexane-6-carboxamide]	100000	140	100000	24.5 nM
Cc1ncnc(C)c1-c1cc(NC(=O)C2(F)CC2)ccc1OCCN1CCCC1 [Compound 233]	100000	8.55	100000	3.81 nM and 4.66 nM
Cc1ncnc(C)c1-c1cc(NC(=O)Cn2cccc2)ccc1OCCN1CCCC1 [Compound 243, N-[3-(4,6-dimethylpyrimidin-5-yl)-4-(2-pyrrolidin-1-ylethoxy)phenyl]-2-pyrrol-1-yl-acetamide]	100000	14.8	100000	8.59 nM
COC1(C(=O)Nc2ccc(OCCN3CCCC3)c(-c3c(C)ncnc3C)c2)CC1 [Compound 244, N-[3-(4,6-dimethylpyrimidin-5-yl)-4-(2-pyrrolidin-1-ylethoxy)phenyl]-1-methoxy-cyclopropanecarboxamide]	100000	13.5	100000	6.51 nM
Cc1ncnc(C)c1-c1cc(NC(=O)C2CC2)ccc1OCCN1CCCC1 [Compound 245, N-[3-(4,6-dimethylpyrimidin-5-yl)-4-(2-pyrrolidin-1-ylethoxy)phenyl]cyclopropanecarboxamide]	100000	9.66	100000	4.3 nM
Cc1ncnc(C)c1-c1cc(NC(=O)Cc2cncs2)ccc1OCCN1CCCC1 [Compound 247, N-[3-(4,6-dimethylpyrimidin-5-yl)-4-(2-pyrrolidin-1-ylethoxy)phenyl]-2-thiazol-5-yl-acetamide]	100000	10.6	100000	4.47 nM
Cc1ncsc1CC(=O)Nc1ccc(OCCN2CCCC2)c(-c2c(C)ncnc2C)c1 [Compound 250, N-(3-(4,6-dimethylpyrimidin-5-yl)-4-(2-(pyrrolidin-1-yl)ethoxy)phenyl)-2-(4-methylthiazol-5-yl)acetamide]	100000	13.9	100000	9.04 nM
Cc1ncnc(C)c1-c1cc(NC(=O)CCc2nccs2)ccc1OCCN1CCCC1 [Compound 256, N-(3-(4,6-dimethylpyrimidin-5-yl)-4-(2-(pyrrolidin-1-yl)ethoxy)phenyl)-3-(thiazol-2-yl)propanamide]	100000	56	100000	9.89 nM
Cc1ncnc(C)c1-c1cc(NC(=O)CCc2cncs2)ccc1OCCN1CCCC1 [Compound 257, N-(3-(4,6-dimethylpyrimidin-5-yl)-4-(2-(pyrrolidin-1-yl)ethoxy)phenyl)-3-(thiazol-5-yl)propanamide]	100000	33.5	100000	14.8 nM
Cc1ncnc(C)c1-c1cc(NC(=O)Cc2ccno2)ccc1OCCN1CCCC1 [Compound 263, N-(3-(4,6-dimethylpyrimidin-5-yl)-4-(2-(pyrrolidin-1-yl)ethoxy)phenyl)-2-(isoxazol-5-yl)acetamide]	100000	35.9	100000	10.1 nM
Cc1ncc(CC(=O)Nc2ccc(OCCN3CCCC3)c(-c3c(C)ncnc3C)c2)s1 [Compound 266, N-(3-(4,6-dimethylpyrimidin-5-yl)-4-(2-(pyrrolidin-1-yl)ethoxy)phenyl)-2-(2-methylthiazol-5-yl)acetamide]	100000	5.23	100000	4.11 nM
Cc1ncnc(C)c1-c1cc(NC(=O)Cc2ccn(C)c2)ccc1OCCN1CCCC1 [Compound 268, N-[3-(4,6-dimethylpyrimidin-5-yl)-4-(2-pyrrolidin-1-ylethoxy)phenyl]-2-(1-methylpyrrol-3-yl)acetamide]	100000	62.4	100000	7.78 nM
Cc1ncnc(C)c1-c1cc(NC(=O)c2ccccc2)ccc1OCCN1CCCC1 [Compound 271, N-[3-(4,6-dimethylpyrimidin-5-yl)-4-(2-pyrrolidin-1-ylethoxy)phenyl]benzamide]	100000	6.1	100000	3.26 nM
Cc1ncnc(C)c1-c1cc(NC(=O)c2ccc(F)cc2)ccc1OCCN1CCCC1 [Compound 272, N-(3-(4,6-dimethylpyrimidin-5-yl)-4-(2-(pyrrolidin-1-yl)ethoxy)phenyl)-4-fluorobenzamide]	2680	7.8	100000	2.43 nM
Cc1ncnc(C)c1-c1cc(NC(=O)Cc2cccc(F)c2)ccc1OCCN1CCCC1 [Compound 275, N-(3-(4,6-dimethylpyrimidin-5-yl)-4-(2-(pyrrolidin-1-yl)ethoxy)phenyl)-2-(3-fluorophenyl)acetamide]	100000	6.32	100000	1.7 nM
COc1ccc(CC(=O)Nc2ccc(OCCN3CCCC3)c(-c3c(C)ncnc3C)c2)cc1 [Compound 276, N-(3-(4,6-dimethylpyrimidin-5-yl)-4-(2-(pyrrolidin-1-yl)ethoxy)phenyl)-2-(4-methoxyphenyl)acetamide]	100000	3.07	100000	0.843 nM
Cc1ncnc(C)c1-c1cc(NC(=O)c2c(F)cnn2C)ccc1OCCN1CCCC1 [Compound 290, N-[3-(4,6-dimethylpyrimidin-5-yl)-4-(2-pyrrolidin-1-ylethoxy)phenyl]-4-fluoro-2-methyl-pyrazole-3-carboxamide]	100000	7.36	100000	3.86 nM
CCOC1CC1C(=O)Nc1ccc(OCCN2CCCC2)c(-c2c(C)ncnc2C)c1 (centres unmarked) [Compound 291, N-(3-(4,6-dimethylpyrimidin-5-yl)-4-(2-(pyrrolidin-1-yl)ethoxy)phenyl)-2-ethoxycyclopropane-1-carboxamide]	100000	9.75	100000	5.04 nM and 15.5 nM
Cc1ncsc1C(=O)Nc1ccc(OCCN2CCC2)c(-c2c(C)ncnc2C)c1 [Compound 306, N-(4-(2-(azetidin-1-yl)ethoxy)-3-(4,6-dimethylpyrimidin-5-yl)phenyl)-4-methylthiazole-5-carboxamide]	–	6.14	100000	2.65 nM
Cc1ncnc(C)c1-c1cc(NC(=O)Cc2cccc(F)c2)ccc1OCCN1CCC1 [Compound 312, N-(4-(2-(azetidin-1-yl)ethoxy)-3-(4,6-dimethylpyrimidin-5-yl)phenyl)-2-(3-fluorophenyl)acetamide]	–	2.38	100000	0.813 nM
Cc1ccccc1C(=O)Nc1ccc(OCCN2CCC2)c(-c2c(C)ncnc2C)c1 [Compound 321, N-(4-(2-(azetidin-1-yl)ethoxy)-3-(4,6-dimethylpyrimidin-5-yl)phenyl)-2-methylbenzamide]	5400	25.7	100000	–
Cc1ncnc(C)c1-c1cc(NC(=O)c2ncsc2C)ccc1OC[C@H]1CCCCN1 [Compound 435, (R)—N-(3-(4,6-dimethylpyrimidin-5-yl)-4-(piperidin-2-ylmethoxy)phenyl)-5-methylthiazole-4-carboxamide]	–	43.2	100000	10.7 nM
Cc1ncnc(C)c1-c1cc(NC(=O)c2cccn2C)ccc1OC[C@H]1CCCCN1 [Compound 436, (R)—N-(3-(4,6-dimethylpyrimidin-5-yl)-4-(piperidin-2-ylmethoxy)phenyl)-1-methyl-1H-pyrrole-2-carboxamide]	–	27.2	100000	6.05 nM
CCC[C@@H](F)C(=O)Nc1ccc(OC[C@H]2CCCCN2)c(-c2c(C)ncnc2C)c1 [Compound 441, (R)—N-[3-(4,6-dimethylpyrimidin-5-yl)-4-[[(2R)-2-piperidyl]methoxy]phenyl]-2-fluoro-pentanamide]	–	12.1	100000	5.67 nM
